ChEMBL document CHEMBL3045684, “Compatibility of traditional and novel acaricides with bumblebees (Bombus terrestris): a first laboratory assessment of toxicity and sublethal effects” (Pest Manag Sci, 2010)
Activity calls are given as the source filed them. The calls are words filed in the database; no cut-off is given here.

Experiments:
Bombus terrestris [1] = assay: Toxicity against worker Bombus terrestris (bumblebee) assessed as mortality at 30 mg a.i./l, po administered through pollen measured after 7 weeks; type: functional; details: 1176 h
Bombus terrestris [2] = assay: Toxicity against worker Bombus terrestris (bumblebee) assessed as mortality at 30 mg a.i./l, po administered through pollen for 11 weeks measured everyday for 3 days followed by once a week for 11 weeks; type: functional
Bombus terrestris [3] = assay: Toxicity against worker Bombus terrestris (bumblebee) assessed as mortality at 30 mg a.i./l, po administered through sugar water for 11 weeks measured everyday for 3 days followed by once a week for 11 weeks; type: functional
Bombus terrestris [4] = assay: Toxicity against po dosed worker Bombus terrestris (bumblebee) administered through sugar water for 11 weeks measured everyday for 3 days followed by once a week for 11 weeks; type: functional
Bombus terrestris [5] = assay: Contact toxicity against worker Bombus terrestris (bumblebee) assessed as mortality at 30 mg a.i./l applied on the dorsal thorax measured up to 1 week; type: functional, organism-based
Bombus terrestris [6] = assay: Contact toxicity against worker Bombus terrestris (bumblebee) assessed as mortality at 30 mg a.i./l applied on the dorsal thorax for 11 weeks measured everyday for 3 days followed by once a week for 11 weeks; type: functional
Bombus terrestris [7] = assay: Contact toxicity against worker Bombus terrestris (bumblebee) assessed as reduction in reproduction at 30 mg a.i./l applied on the dorsal thorax for 11 weeks measured once a week for 11 weeks relative to control; type: functional, organism-based
Bombus terrestris [8] = assay: Toxicity against worker Bombus terrestris (bumblebee) assessed as reduction in reproduction at 30 mg a.i./l, po administered through pollen for 11 weeks measured once a week for 11 weeks; type: functional; set-up: scale not given: the % may be the effect or the level left

Work on `Cc1c(COC(=O)[C@@H]2[C@H](/C=C(\Cl)C(F)(F)F)C2(C)C)cccc1-c1ccccc1` (relative stereo) [BIFENTHRIN] yielded a mortality at 30 µg/mL (Bombus terrestris [1]) of 100%, a mortality at 30 µg/mL (Bombus terrestris [2]) of 90% and a mortality at 30 µg/mL (Bombus terrestris [3]) of 50%. For the same compound, the LC50 (Bombus terrestris [4]) was 0.36 mgAi/L, the NOAEL (Bombus terrestris [4]) was 0.03 mgAi/L and the Activity (Bombus terrestris [5]) was “Active”. For the same compound, the mortality at 30 µg/mL (Bombus terrestris [6]) was 100%, the Activity (Bombus terrestris [7]) was “Active” and the Activity (Bombus terrestris [8]) was 50%.
